Source: patent US11400058B2, “Intravenous formulations of coenzyme Q10 (CoQ10) and methods of use thereof” (Berg LLC, priority 2010, dated 2022)
Marks after values point to notes of the source that are not given here.

Assay: 4-week repeat-dose toxicology study in rats with 2-week recovery (Study 20000328)
[1] = 250 mg/kg F, end of dosing, animals of 10
[2] = 250 mg/kg F, end of recovery, animals of 5
[3] = 250 mg/kg M, end of dosing, animals of 10
[4] = 250 mg/kg M, end of recovery, animals of 5

COC1=C(OC)C(=O)C(C/C=C(\C)CC/C=C(\C)CC/C=C(\C)CC/C=C(\C)CC/C=C(\C)CC/C=C(\C)CC/C=C(\C)CC/C=C(\C)CC/C=C(\C)CCC=C(C)C)=C(C)C1=O [CoQ10, Coenzyme Q10]
96* IU/L: ALT (250 mg/kg M, end of recovery)
10: Spleen Histiocytic Infiltration [1] | Adrenal Gland Vacuolation [3] | Gross Pathology: Pale Liver [3] | Injection Site Mononuclear Cell Infiltration [3] | Liver Histiocytic Infiltration [3] | Liver Vacuolation [3] | Liver Vacuolation, Mild [3] | Spleen Histiocytic Infiltration [3]
12.9* g/dL: Hemoglobin (250 mg/kg M, end of dosing)
14.7 s: APPT (250 mg/kg F, end of recovery)
0.42 IU/L: GGT (250 mg/kg M, end of recovery)
7: Spleen Histiocytic Infiltration, Moderate [1] | Liver Histiocytic Infiltration, Mild [3] | Lymph Node, Mes. Histiocytic Infiltration, Mild [3]
15.3* seconds: APPT (250 mg/kg M, end of recovery)
0: Adrenal Gland Vacuolation, Mild [2] | Adrenal Gland Vacuolation, Minimal [2] | Liver Focal Necrosis, Minimal [2] | Liver Histiocytic Infiltration, Minimal [2] | Liver Multifocal Necrosis, Mild [2] | Liver Vacuolation, Mild [2] | Liver Vacuolation, Minimal [2] | Lymph Node, Mes. Histiocytic Infiltration, Minimal [2] | Ovary Histiocytic Infiltration, Minimal [2] | Spleen Histiocytic Infiltration, Marked [2] | Spleen Histiocytic Infiltration, Moderate [2] | Died or Sacrificed Moribund (250 mg/kg M, animals of 15) | Adrenal Gland Vacuolation, Minimal [3] | Bone Marrow, Sternum Hyperplasia, Minimal [3] | Gross Pathology: Pale SQ Skin [3] | Injection Site Mononuclear Cell Infiltration, Mild [3] | Injection Site Mononuclear Cell Infiltration, Minimal [3] | Liver Focal Necrosis [3] | Liver Focal Necrosis, Minimal [3] | Liver Vacuolation, Minimal [3] | Lymph Node, Man. Histiocytic Infiltration, Minimal [3] | Skin, Dermis Histiocytic Infiltration [3] | Skin, Dermis Histiocytic Infiltration, Marked [3] | Skin, Dermis Histiocytic Infiltration, Mild [3] | Skin, Dermis Histiocytic Infiltration, Moderate [3] | Skin, SQ Histiocytic Infiltration [3] | Skin, SQ Histiocytic Infiltration, Mild [3] | Spleen Histiocytic Infiltration, Mild [3] | Adrenal Gland Vacuolation, Marked [4] | Adrenal Gland Vacuolation, Minimal [4] | Liver Focal Necrosis, Minimal [4] | Liver Histiocytic Infiltration, Moderate [4] | Liver Multifocal Necrosis, Moderate [4] | Liver Vacuolation, Mild [4] | Liver Vacuolation, Minimal [4] | Lymph Node, Mes. Histiocytic Infiltration, Minimal [4] | Spleen Histiocytic Infiltration, Minimal [4]
−15.0* %: Body Weight, percent difference from controls (250 mg/kg M, end of recovery)
153* IU/L: AST (250 mg/kg F, end of recovery)
−14.1%: Food Consumption, percent difference from controls (250 mg/kg M, end of recovery)
+19.6%: Liver weight (absolute), percent difference from controls (250 mg/kg F, end of recovery)
6: Lymph Node, Man. Histiocytic Infiltration, Moderate [3]
15.55* 10^3/cmm: Leukocytes (250 mg/kg M, end of dosing)
0.58* IU/L: GGT (250 mg/kg F, end of recovery)
+82.7* %: Spleen weight (absolute), percent difference from controls (250 mg/kg F, end of recovery)
5: Adrenal Gland Vacuolation [2] | Gross Pathology: Pale Liver [2] | Liver Histiocytic Infiltration [2] | Liver Vacuolation [2] | Liver Vacuolation, Moderate [2] | Lymph Node, Man. Histiocytic Infiltration [2] | Lymph Node, Mes. Histiocytic Infiltration [2] | Lymph Node, Mes. Histiocytic Infiltration, Mild [2] | Ovary Histiocytic Infiltration [2] | Spleen Histiocytic Infiltration [2] | Adrenal Gland Vacuolation, Mild [3] | Adrenal Gland Vacuolation, Moderate [3] | Gross Pathology: Enlarged Pancreatic Lymph Nodes [3] | Gross Pathology: Pale Liver [4] | Liver Histiocytic Infiltration [4] | Liver Vacuolation [4] | Liver Vacuolation, Moderate [4] | Lymph Node, Man. Histiocytic Infiltration [4] | Lymph Node, Mes. Histiocytic Infiltration [4] | Lymph Node, Mes. Histiocytic Infiltration, Mild [4] | Spleen Histiocytic Infiltration [4]
113* IU/L: AST (250 mg/kg M, end of dosing)
+7.6%: Liver weight (absolute), percent difference from controls (250 mg/kg M, end of recovery)
40.4* %: Hematocrit (250 mg/kg M, end of dosing)
4: Adrenal Gland Vacuolation, Moderate [2] | Gross Pathology: Pale Iliac Lymph Node [2] | Gross Pathology: Pale Ovaries [2] | Liver Histiocytic Infiltration, Moderate [2] | Ovary Histiocytic Infiltration, Mild [2] | Spleen Histiocytic Infiltration, Mild [2] | Bone Marrow, Sternum Hyperplasia [3] | Bone Marrow, Sternum Hyperplasia, Mild [3] | Gross Pathology: Pale Adrenal [3] | Adrenal Gland Vacuolation [4] | Gross Pathology: Enlarged Spleen [4] | Liver Histiocytic Infiltration, Mild [4]
35* IU/L: ALT (250 mg/kg M, end of dosing)
−16.4* %: Food Consumption, percent difference from controls (250 mg/kg M, end of dosing)
9: Injection Site Mononuclear Cell Infiltration, Moderate [3] | Lymph Node, Man. Histiocytic Infiltration [3] | Lymph Node, Mes. Histiocytic Infiltration [3] | Spleen Histiocytic Infiltration, Moderate [3]
8: Gross Pathology: Pale Lymph Nodes [3]
2: Spleen Histiocytic Infiltration, Marked [1] | Gross Pathology: Enlarged Spleen [2] | Liver Histiocytic Infiltration, Moderate [3] | Adrenal Gland Vacuolation, Mild [4] | Adrenal Gland Vacuolation, Moderate [4] | Liver Focal Necrosis [4] | Lymph Node, Man. Histiocytic Infiltration, Minimal [4] | Lymph Node, Man. Histiocytic Infiltration, Moderate [4]
+38.7* %: Spleen weight (absolute), percent difference from controls (250 mg/kg M, end of recovery)
3: Gross Pathology: Pale Pancreatic Lymph Node [2] | Lymph Node, Man. Histiocytic Infiltration, Mild [2] | Gross Pathology: Pale Pituitary [3] | Lymph Node, Man. Histiocytic Infiltration, Mild [3] | Gross Pathology: Pale Iliac Lymph Node [4] | Gross Pathology: Pale Pancreatic Lymph Node [4] | Spleen Histiocytic Infiltration, Mild [4]
213* IU/L: AST (250 mg/kg M, end of recovery)
6.23 10^6/cmm: Erythrocytes (250 mg/kg M, end of dosing)
12.58 10^3/cmm: Lymphocytes (250 mg/kg M, end of dosing)
1: Spleen Histiocytic Infiltration, Mild [1] | Adrenal Gland Vacuolation, Marked [2] | Liver Focal Necrosis [2] | Liver Focal Necrosis, Mild [2] | Liver Histiocytic Infiltration, Mild [2] | Liver Multifocal Necrosis [2] | Liver Multifocal Necrosis, Moderate [2] | Lymph Node, Man. Histiocytic Infiltration, Minimal [2] | Lymph Node, Man. Histiocytic Infiltration, Moderate [2] | Ovary Histiocytic Infiltration, Moderate [2] | Spleen Histiocytic Infiltration, Minimal [2] | Injection Site Mononuclear Cell Infiltration, Marked [3] | Liver Histiocytic Infiltration, Minimal [3] | Lymph Node, Mes. Histiocytic Infiltration, Minimal [3] | Lymph Node, Mes. Histiocytic Infiltration, Moderate [3] | Spleen Histiocytic Infiltration, Marked [3] | Liver Focal Necrosis, Mild [4] | Liver Histiocytic Infiltration, Minimal [4] | Liver Multifocal Necrosis [4] | Liver Multifocal Necrosis, Mild [4] | Lymph Node, Man. Histiocytic Infiltration, Mild [4] | Spleen Histiocytic Infiltration, Marked [4] | Spleen Histiocytic Infiltration, Moderate [4]
+65.9%: Spleen weight (absolute), percent difference from controls (250 mg/kg M, end of dosing)
0.14* 10^3/cmm: Eosinophils (250 mg/kg M, end of dosing)
0.16 IU/L: GGT (250 mg/kg M, end of dosing)
−12.6%: Body Weight, percent difference from controls (250 mg/kg F, end of recovery)
63* IU/L: ALT (250 mg/kg F, end of recovery)
−17.6* %: Body Weight, percent difference from controls (250 mg/kg M, end of dosing)
14.7* seconds: APPT (250 mg/kg M, end of dosing)
+11.0%: Liver weight (absolute), percent difference from controls (250 mg/kg M, end of dosing)
2.13* 10^3/cmm: Neutrophils (250 mg/kg M, end of dosing)
+0.7%: Food Consumption, percent difference from controls (250 mg/kg F, end of recovery)
